This is an account of results in publication PMC11822212, “High-throughput screening identifies Aurora kinase B as a critical therapeutic target for Merkel cell carcinoma” (Nature Communications, 2025).

Common to all, as to test: qHTS cell viability (CellTiter-Glo, 72 h; primary and follow-up small molecule screen)
What all share (format): cell-based, human
On the technique in general: Quantitative high-throughput screening tests each substance at several concentrations.

One test has as its system MCC26 cells (VN-MCC). Conditions: follow-up screen, MCC26.
Another test relates to UISO cells (VN-MCC). Conditions: follow-up screen, UISO.
A further test has as its system MCC13 cells (VN-MCC). Conditions: follow-up screen, MCC13.
The test system of another test is MKL-2 cells (VP-MCC). As to conditions: follow-up screen, MKL-2.
In another test the test system is WAGA cells (VP-MCC). Conditions: follow-up screen, WAGA.
In the next test the test system is MKL-1 cells (VP-MCC). As to conditions: follow-up screen, MKL-1.

`COc1ccc([C@]2(C#N)CC[C@@H](C(=O)O)CC2)cc1OC1CCCC1` [Cilomilast]: in the test with MCC26 cells (VN-MCC), the “Area under the dose-response curve (AUC) MCC26 Replicate 1” value (from here on “Area … (AUC) MCC26 Replicate 1”) is 421.1, the “Area under the dose-response curve (AUC) MCC26 Replicate 2” value (shortened to “Area … (AUC) MCC26 Replicate 2”) was determined as 410.0 and the “Area under the dose-response curve (AUC) MCC26 Replicate 3” value (“Area … (AUC) MCC26 Replicate 3” below) came to 436.1. Also, in the test on UISO cells (VN-MCC), the “Area under the dose-response curve (AUC) UISO Replicate 1” value (from here on “Area … (AUC) UISO Replicate 1”) stood at 447.9, the “Area under the dose-response curve (AUC) UISO Replicate 2” value (from here on “Area … (AUC) UISO Replicate 2”) stood at 471.9 and the “Area under the dose-response curve (AUC) UISO Replicate 3” value (from here on “Area … (AUC) UISO Replicate 3”) amounted to 485.5. In addition, in the test on MCC13 cells (VN-MCC), the “Area under the dose-response curve (AUC) MCC13 Replicate 1” value (from here on “Area … (AUC) MCC13 Replicate 1”) worked out at 465.9, the “Area under the dose-response curve (AUC) MCC13 Replicate 2” value (shortened to “Area … (AUC) MCC13 Replicate 2”) turned out to be 445.9 and the “Area under the dose-response curve (AUC) MCC13 Replicate 3” value (“Area … (AUC) MCC13 Replicate 3” below) was determined as 491.5. For the same compound, in the test with MKL-2 cells (VP-MCC), the “Area under the dose-response curve (AUC) MKL-2 Replicate 1” value (from here on “Area … (AUC) MKL-2 Replicate 1”) is 473.7, the “Area under the dose-response curve (AUC) MKL-2 Replicate 2” value (shortened to “Area … (AUC) MKL-2 Replicate 2”) is 471.8 and the “Area under the dose-response curve (AUC) MKL-2 Replicate 3” value (“Area … (AUC) MKL-2 Replicate 3” below) is reported as 486.7. Further, in the test with WAGA cells (VP-MCC), the “Area under the dose-response curve (AUC) WAGA Replicate 1” value (from here on “Area … (AUC) WAGA Replicate 1”) was 477.6, the “Area under the dose-response curve (AUC) WAGA Replicate 2” value (from here on “Area … (AUC) WAGA Replicate 2”) is 504.5 and the “Area under the dose-response curve (AUC) WAGA Replicate 3” value (from here on “Area … (AUC) WAGA Replicate 3”) stood at 496.1. In the test with MKL-1 cells (VP-MCC), the “Area under the dose-response curve (AUC) MKL-1 Replicate 1” value (from here on “Area … (AUC) MKL-1 Replicate 1”) is reported as 459.2, the “Area under the dose-response curve (AUC) MKL-1 Replicate 2” value (shortened to “Area … (AUC) MKL-1 Replicate 2”) turned out to be 478.6 and the “Area under the dose-response curve (AUC) MKL-1 Replicate 3” value (“Area … (AUC) MKL-1 Replicate 3” below) worked out at 483.6.
In the case of `Nc1nc(Cl)nc2c1ncn2[C@@H]1O[C@H](CO)[C@@H](O)[C@@H]1F` [Clofarabine], in the test on MCC26 cells (VN-MCC), the “Area … (AUC) MCC26 Replicate 1” value was 347.1, the “Area … (AUC) MCC26 Replicate 2” value amounted to 310.6 and the “Area … (AUC) MCC26 Replicate 3” value turned out to be 353.8. In the test on UISO cells (VN-MCC), the “Area … (AUC) UISO Replicate 1” value came to 305.8, the “Area … (AUC) UISO Replicate 2” value stood at 296.3 and the “Area … (AUC) UISO Replicate 3” value was 317.2. In the test with MCC13 cells (VN-MCC), the “Area … (AUC) MCC13 Replicate 1” value is 326.5, the “Area … (AUC) MCC13 Replicate 2” value is 337.3 and the “Area … (AUC) MCC13 Replicate 3” value was found to be 347.1. Moreover, in the test with MKL-2 cells (VP-MCC), the “Area … (AUC) MKL-2 Replicate 1” value worked out at 314.2, the “Area … (AUC) MKL-2 Replicate 2” value is reported as 343.5 and the “Area … (AUC) MKL-2 Replicate 3” value was 397.2. In the test on WAGA cells (VP-MCC), the “Area … (AUC) WAGA Replicate 1” value is 261.2, the “Area … (AUC) WAGA Replicate 2” value was found to be 248.1 and the “Area … (AUC) WAGA Replicate 3” value was 263.5. In the test on MKL-1 cells (VP-MCC), the “Area … (AUC) MKL-1 Replicate 1” value came to 270.1, the “Area … (AUC) MKL-1 Replicate 2” value was determined as 265.5 and the “Area … (AUC) MKL-1 Replicate 3” value turned out to be 283.6.
For `C[C@H]1CCC/C=C/[C@@H]2C[C@H](O)C[C@H]2[C@H](O)/C=C/C(=O)O1` [Cyanein], in the test with MCC26 cells (VN-MCC), the “Area … (AUC) MCC26 Replicate 1” value turned out to be 231.7, the “Area … (AUC) MCC26 Replicate 2” value was determined as 265.8 and the “Area … (AUC) MCC26 Replicate 3” value stood at 194.4. Moreover, in the test with UISO cells (VN-MCC), the “Area … (AUC) UISO Replicate 1” value is 206.3, the “Area … (AUC) UISO Replicate 2” value came to 227.9 and the “Area … (AUC) UISO Replicate 3” value was 213.5. Also, in the test with MCC13 cells (VN-MCC), the “Area … (AUC) MCC13 Replicate 1” value is 216.1, the “Area … (AUC) MCC13 Replicate 2” value is reported as 230.2 and the “Area … (AUC) MCC13 Replicate 3” value was determined as 238.1. In addition, in the test on MKL-2 cells (VP-MCC), the “Area … (AUC) MKL-2 Replicate 1” value stood at 238.6, the “Area … (AUC) MKL-2 Replicate 2” value came to 217.1 and the “Area … (AUC) MKL-2 Replicate 3” value was determined as 214.7. In addition, in the test with WAGA cells (VP-MCC), the “Area … (AUC) WAGA Replicate 1” value turned out to be 224.1, the “Area … (AUC) WAGA Replicate 2” value is 259.2 and the “Area … (AUC) WAGA Replicate 3” value is on record as 236.6. In addition, in the test with MKL-1 cells (VP-MCC), the “Area … (AUC) MKL-1 Replicate 1” value is reported as 208.9, the “Area … (AUC) MKL-1 Replicate 2” value came out at 220.0 and the “Area … (AUC) MKL-1 Replicate 3” value is listed as 232.6.
